Counter-ions that a name gives are not always drawn. Like-named read-outs stand apart in the source and are kept apart here.
Columns and labels:
[1] = test system: aortic segments of the rat (contraction induced by PHE); experiment: Functional test (rat aorta): vascular reactivity on aortic rings without endothelium contracted with phenylephrine; conditions: aortic rings without endothelium contracted with PHE 10^-6 M, read-out: Relaxation (rat aorta + PHE), IC50
Description: Functional Test (Rat Aorta) Study of Vascular Reactivity on Aortic Segments of the Rat. After anaesthesia of the animal, the thoracic aorta is removed and immediately placed in a physiological saline solution (PSS). The proximal thoracic aorta is cleaned of adherent conjunctive tissue and 4 aortic rings (3-4 mm) are cut. The endothelium is removed mechanically without damaging the smooth muscle cells. The rings without endothelium are placed in PSS medium in isolated organ baths maintained at 37° C. in the presence of carbogen. The isometric tension of the rings is recorded by means of a force sensor. At their optimum tension, the rings are subjected to an equilibration period during which the physiological medium is replaced regularly. The preparations are then contracted twice by means of a hyperpotassic solution (KCl 60 mM), each of the 2 contractions being followed by successive washings in order to return to the original tension. The absence of endothelium is verified after contraction by an al-adrenergic receptor agonist, phenylephrine (PHE, 10^−6M), followed by the addition of carbachol (10^−5M), a muscarinic receptor agonist, which induces a relaxation only in the presence of endothelium. The rings are then washed regularly with PSS for 60 minutes in order to remove the pharmacological agents. The rings are recontracted with PHE (10^−6M) and then, after stabilisation of the contraction, the product or its solvent is added in cumulative concentrations, 5 concentrations are tested: 10M^−8, 10^−7M, 10^−6M, 10M^−5 and 3×10^−5M (if the product is dissolved in DMSO) or 10^−4M (if H2O is the solvent of the product). The contractile response is obtained in milligrams (mg). The results are expressed by the mean±SEM of the contractile responses obtained on at least 2 rats. The variations in tension of each product are calculated as a percentage of the maximum contraction induced by PHE before the product is added, according to the formula: % contraction B(t)=[×(mg) tension(compound)B(t)/y (mg) maximum tension (PHE)B]×100. The concentration-response curves obtained are analysed and allow the IC50 value of each product to be determined (IC50: concentration of product necessary to inhibit 50% of the maximum contraction induced by PHE), the estimation of the IC50 value of the concentration-response curves being obtained by non-linear regression.

[2] = test system: arterial pressure of spontaneously hypertensive rats (SHR); experiment: Evaluation on the arterial pressure in spontaneously hypertensive rats (SHR), telemetry; type: in vivo; conditions: SHR rat, maximum change of arterial pressure relative to basal
Protocol: The effect of the ROCK inhibitors was tested by the reduction of the arterial pressure (AP) that they induce in spontaneously hypertensive rats (SHR) after intravenous (i.v.) and/or oral administration. In summary, the SHRs were anaesthetised with 2% isoflurane, and a telemetry probe (PAC40, Data Science International) was implanted in the abdominal aorta to record the AP and a polyethylene catheter was implanted in the jugular vein for the i.v. administration. After recovery from the surgery (2 to 3 weeks), the AP was recorded continuously for 24 hours after administration of the ROCK inhibitors at doses of 1, 3, 10 and 30 mg/kg by the i.v. route and/or by the oral route. The effect on the AP was expressed as the percentage reduction relative to the basal arterial pressure before administration of the product.

[3] = molecular target: human ROCK1 (Homo sapiens, UniProt Q13464); experiment: ROCK1 enzymatic test (LANCE, phosphorylation of Ulight-RRRSLLE (PLK) substrate); type: biochemical; conditions: human recombinant enzyme, 1 μM ATP, 50 nM Ulight-RRRSLLE (PLK) substrate, 30 minutes at ambient temperature; read-out: ROCK1(h), IC50
Protocol: Evaluation of the effects of compounds on human ROCK1 activity quantified by measuring the phosphorylation of the substrate Ulight-RRRSLLE (PLK) using a human recombinant enzyme and the LANCE® detection method.
The test compound, the reference compound or water (control) is mixed with the enzyme (8.2 ng) in a buffer comprising 40 mM Hepes/Tris (pH 7.4), 0.8 mM EGTA/Tris, 8 mM MgCl2, 1.6 mM DTT and 0.008% Tween 20.
The reaction is then started by adding 50 nM of Ulight-RRRSLLE (PLK) substrate and 1 μM of ATP, and the mixture is incubated for 30 minutes at ambient temperature. For the basal control measurements, the enzyme is excluded from the reaction mixture.
After the incubation, the reaction is stopped by adding 13 mM of EDTA. After 5 minutes, the anti-phospho-PLK antibody labelled with europium chelate is added. After a further 60 minutes, the fluorescence transfer is measured at lex=337 nm, lem=620 nm and lem=665 nm using a microplate reader (Envision, Perkin Elmer). The enzymatic activity is determined by dividing the signal measured at 665 nm by that measured at 620 nm (ratio). The results are expressed in the form of a percentage inhibition of the control enzymatic activity. The standard reference inhibition compound is staurosporine, which is tested in each experiment at several concentrations in order to obtain an inhibition curve on the basis of which the value of the IC50 (concentration that induces 50% inhibition) is calculated.

[4] = IV 3 mg/kg, read-out: SHR rat ΔAP % max, IV 3 mg/kg
[5] = PO 3 mg/kg, read-out: SHR rat ΔAP % max, PO 3 mg/kg

human ROCK1, sequence (Q13464 whole entry): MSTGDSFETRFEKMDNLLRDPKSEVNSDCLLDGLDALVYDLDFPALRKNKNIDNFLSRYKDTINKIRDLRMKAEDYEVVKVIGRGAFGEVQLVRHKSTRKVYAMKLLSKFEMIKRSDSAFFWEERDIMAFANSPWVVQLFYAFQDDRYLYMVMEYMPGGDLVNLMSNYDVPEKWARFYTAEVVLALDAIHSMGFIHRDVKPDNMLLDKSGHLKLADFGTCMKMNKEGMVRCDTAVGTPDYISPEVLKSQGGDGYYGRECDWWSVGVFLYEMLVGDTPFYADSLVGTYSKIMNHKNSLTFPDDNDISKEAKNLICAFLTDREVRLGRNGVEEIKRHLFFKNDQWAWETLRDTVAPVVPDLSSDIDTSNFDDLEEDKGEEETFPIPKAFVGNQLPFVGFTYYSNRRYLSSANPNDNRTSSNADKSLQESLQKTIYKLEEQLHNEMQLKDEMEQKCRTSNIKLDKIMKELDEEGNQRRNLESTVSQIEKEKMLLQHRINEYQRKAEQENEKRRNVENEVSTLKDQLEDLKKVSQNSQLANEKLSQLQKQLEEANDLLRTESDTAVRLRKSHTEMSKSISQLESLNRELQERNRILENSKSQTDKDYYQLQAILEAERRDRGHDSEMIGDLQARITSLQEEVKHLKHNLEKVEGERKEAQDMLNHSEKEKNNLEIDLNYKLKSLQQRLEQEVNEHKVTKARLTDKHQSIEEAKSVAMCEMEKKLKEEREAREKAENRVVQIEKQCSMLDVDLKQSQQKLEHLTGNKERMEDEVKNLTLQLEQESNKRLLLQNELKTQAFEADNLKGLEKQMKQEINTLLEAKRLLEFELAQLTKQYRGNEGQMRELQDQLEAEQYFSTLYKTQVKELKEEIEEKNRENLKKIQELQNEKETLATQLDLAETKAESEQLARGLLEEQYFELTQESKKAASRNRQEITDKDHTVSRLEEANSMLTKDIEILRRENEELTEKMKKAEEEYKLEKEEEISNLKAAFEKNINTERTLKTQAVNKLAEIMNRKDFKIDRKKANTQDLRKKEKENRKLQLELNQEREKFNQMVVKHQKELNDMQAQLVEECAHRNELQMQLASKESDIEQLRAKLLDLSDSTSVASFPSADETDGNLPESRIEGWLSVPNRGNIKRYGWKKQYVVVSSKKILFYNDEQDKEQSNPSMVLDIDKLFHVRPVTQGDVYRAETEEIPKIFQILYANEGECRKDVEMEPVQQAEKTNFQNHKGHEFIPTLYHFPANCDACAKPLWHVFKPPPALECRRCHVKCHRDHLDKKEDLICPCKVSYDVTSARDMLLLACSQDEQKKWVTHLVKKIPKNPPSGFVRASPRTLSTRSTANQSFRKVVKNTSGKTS

Structure (SMILES)	IC50 [1] [nM]	change in vivo at 3 mg/kg [2, 4] [%]	change in vivo at 3 mg/kg [2, 5] [%]	IC50 [3] [nM]
C[C@H](N)c1cc(F)c(C(O)c2cccc3cnccc23)c(F)c1 (single isomer, unassigned; enantiomer 1) [Product P21]	1000	–	–	–
CC(N)c1cc(F)c(C(=O)c2cccc3cnccc23)c(F)c1 (stereo not drawn) [Product P6, [4-(1-Aminoethyl)-2,6-difluorophenyl](isoquinolin-5-yl)methanone dihydrochloride]	200	-73.4	-35.6	–
C[C@@H](N)c1cc(F)c(C(=O)c2cccc3cnccc23)c(F)c1 [Product P9, {4-[(1R)-1-Aminoethyl]-2,6-difluorophenyl}(isoquinolin-5-yl)methanone dihydrochloride]	33	-67	-53.7	5.87
CC(N)c1cc(F)c(C(=O)c2cccc3c(O)nccc23)c(F)c1 (stereo not drawn) [Product P17, [4-(1-Aminoethyl)-2,6-difluorophenyl](1-hydroxyisoquinolin-5-yl)methanone hydrochloride]	14	-72.8	-56.6	4.2
CC(N)c1cc(F)c(Cc2cccc3cnccc23)c(F)c1 (stereo not drawn) [Product P19, 1-[3,5-Difluoro-4-(isoquinolin-5-ylmethyl)phenyl]ethanamine dihydrochloride]	230	-39.6	–	63
CC(C)(N)c1cc(F)c(C(=O)c2cccc3cnccc23)c(F)c1 [Product P24, [4-(2-Aminopropan-2-yl)-2,6-difluorophenyl](isoquinolin-5-yl)methanone dihydrochloride]	10	-68.2	-52.5	23
CC(C)(N)c1cc(F)c(C(=O)c2cccc3c(=O)[nH]ccc23)c(F)c1 [Product P27, 5-[4-(2-Aminopropan-2-yl)-2,6-difluorobenzoyl]isoquinolin-1(2H)-one hydrochloride]	50	-69	-54	8.7
COc1c(C(C)N)ccc(C(=O)c2cccc3c(=O)[nH]ccc23)c1F (stereo not drawn) [Product P42, 5-[4-(1-Aminoethyl)-2-fluoro-3-methoxybenzoyl]isoquinolin-1(2H)-one hydrochloride]	200	-59.9	-12.3	9.6
C[C@@H](N)c1ccc(C(=O)c2cccc3c(=O)[nH]ccc23)c2c1CCCO2 [Product P45, 5-({5-[(1R)-1-Aminoethyl]-3,4-dihydro-2H-chromen-8-yl}carbonyl)isoquinolin-1(2H)-one hydrochloride]	100	-60.6	-24	5
Cc1cc([C@@H](C)N)ccc1C(=O)c1cccc2c(=O)[nH]ccc12 [Product P47, 5-{4-[(1R)-1-Aminoethyl]-2-methylbenzoyl}isoquinolin-1(2H)-one hydrochloride]	40	-62.7	-26.4	6.78
CC(NCCO)c1cc(F)c(C(=O)c2cccc3c(=O)[nH]ccc23)c(F)c1 (stereo not drawn) [Product P48, 5-(2,6-Difluoro-4-{1-[(2-hydroxyethyl)amino]ethyl}benzoyl)isoquinolin-1(2H)-one hydrochloride]	150	-67.3	-29.2	7.45
Cc1c[nH]c(=O)c2cccc(C(=O)c3c(F)cc([C@@H](C)N)cc3F)c12 [Product P50, 5-{4-[(1R)-1-Aminoethyl]-2,6-difluorobenzoyl}-4-methylisoquinolin-1(2H)-one hydrochloride]	100	-58	-16.8	5.4
C[C@@H](N)c1ccc(F)c(C(=O)c2cccc3c(=O)[nH]ccc23)c1F [Product P56, 5-{3-[(1R)-1-Aminoethyl]-2,6-difluorobenzoyl}isoquinolin-1(2H)-one hydrochloride]	150	-54.7	–	16.5
NC1CCc2c1cc(F)c(C(=O)c1cccc3c(=O)[nH]ccc13)c2F (stereo not drawn) [Product P58, 5-[(1-Amino-4,6-difluoro-2,3-dihydro-1H-inden-5-yl)carbonyl]isoquinolin-1(2H)-one hydrochloride]	70	-65.1	-52.7	3.85
N[C@@H]1CCc2cc(F)c(C(=O)c3cccc4c(=O)[nH]ccc34)c(F)c21 [Product P59, 5-{[(3R)-3-Amino-4,6-difluoro-2,3-dihydro-1H-inden-5-yl]carbonyl}isoquinolin-1(2H)-one hydrochloride]	550	-40.3	–	1.95
C[C@@H](N)c1ccc(C(=O)c2cccc3c(=O)[nH]ccc23)c2c1OCCO2 [Product P61, 5-({8-[(1R)-1-Aminoethyl]-2,3-dihydro-1,4-benzodioxin-5-yl}carbonyl)isoquinolin-1(2H)-one hydrochloride]	170	-59	–	5.35
O=C(c1c(F)cc(C2CCCCN2)cc1F)c1cccc2c(=O)[nH]ccc12 (stereo not drawn) [Product P75, 5-[2,6-Difluoro-4-(piperidin-2-yl)benzoyl]isoquinolin-1(2H)-one hydrochloride]	200	-49.8	-12.4	10.4
NC(CC1CCCCC1)c1cc(F)c(C(=O)c2cccc3c(=O)[nH]ccc23)c(F)c1 (stereo not drawn) [Product P129, 5-[4-(1-Amino-2-cyclohexylethyl)-2,6-difluorobenzoyl]isoquinolin-1(2H)-one hydrochloride]	2000	-30.2	-18.4	20.5
NCC1CCOc2c(C(=O)c3cccc4c(=O)[nH]ccc34)cccc21 (stereo not drawn) [Product P139, 5-{[4-(Aminomethyl)-3,4-dihydro-2H-chromen-8-yl]carbonyl}isoquinolin-1(2H)-one hydrochloride]	2000	–	–	87.5

From US9809553B2, “Isoquinoline compounds, a process for their preparation, and pharmaceutical compositions containing them” (LES LABORATOIRES SERVIER, priority 2014, dated 2017)
